We go through two compounds from patent US9650332B1, “Prodrug of probucol and method for preparing the same” (priority 2016, dated 2017).

A short description of the data set: Pharmacokinetic studies of the prodrugs of probucol in rats (oral gavage, plasma LC/MS/MS). The data set is classed as in vivo. The settings on record: male, Sprague Dawley, rat, 20 mg/kg prodrug by oral gavage, overnight fasting, analyte: prodrug; for AUC(0-t): read-out: AUC0-t of the prodrug in blood; for Cmax: read-out: Cmax of the prodrug in blood; for Tmax: read-out: tmax of the prodrug in blood. As for the experimental part: Four different kinds of probucol's prodrugs were prepared based on the example 1, 2, 3 and 4 to evaluate their pharmacodynamic and pharmacokinetic characteristics in rats.
Three Sprague Dawley Male Rats were used in each experiment for each prodrug. The laboratory animal models are provided by Shanghai Super-B&K laboratory animal Corp. Ltd. (No. Of animal license SYXK(HU)2008-0016).
Weighed 20 mg sample and dissolved it with 1 ml ethanol. Then, in turn, added 1 ml Solutol HS15 and 8 ml pH4.63 acetate buffer to make the final solution with the concentration of 2 mg/ml. The left soup were saved to run quantitative analysis.
Three Sprague Dawley male rats were given the dose of […] (volume: 10 ml/kg) drugs by oral gavage under the condition of overnight fasting.
Blood (volume: 0.1 ml) was drawn at 0.5, 1.0, 2.0, 4.0, 6.0, 8.0, 24.0 hours pre-dose and post-dose respectively to all animal subjects. Saved the blood samples in heparinized tubes and then centrifuged them for 10 minutes at […] at 4° C. The separated plasma was stored at −20° C. All the process including blood collection and blood analysis should be conducted in low temperatures. Standard meals were provided after 2 hours of dosing.
API 4000 QTRAP LC/MS/MS (Applied Biosystems Corporation, US)
LC-20AD HPLC system (Shimadzu Corporation, Japan)
The prodrug and metabolite probucol were measured at the same time. Took 25 ul rat plasma that drawn at different time points after dosing, and then added 50 ul internal standard YX1162 (200 ng/ml, prepared by acetonitrile) and 175 ul acetonitrile, vortex mixed for 3 minutes, and then centrifuged at 13500 rpm for 10 minutes. Took 10 ul supernatant to run LC/MS/MS analysis.
The prodrug and metabolite probucol were measured at the same time. Took 25 ul rat blank plasma, then added 25 ul solution of standard series to make the drug concentration 1.00, 2.00, 5.00, 25.0, 100, 500, 2000, 20000 and 40000 ng/ml. Next, added 50 ul internal standard YX1162 (200 ng/ml, prepared by acetonitrile) and 150 ul acetonitrile, then followed the same protocol shown in 3.4.
Set plasma concentration as X-axis and the ratio of chromatographic peak areas for sample and internal standard as Y-axis, then used weighted least square method (w=1/x^2) to conduct linear regression analysis.

As to `CCOC(=O)OC(C)Oc1c(C(C)(C)C)cc(SC(C)(C)Sc2cc(C(C)(C)C)c(O)c(C(C)(C)C)c2)cc1C(C)(C)C` (stereo not drawn) [Example 2], the AUC(0-t) was found to be 1070 ± 404 ng·h/mL, the Cmax is 268 ± 56 ng/mL and the time of peak concentration (Tmax) is 2.37 ± 1.41 h.

Regarding `CCOC(=O)OCOc1c(C(C)(C)C)cc(SC(C)(C)Sc2cc(C(C)(C)C)c(O)c(C(C)(C)C)c2)cc1C(C)(C)C` [Example 1], the AUC(0-t) worked out at 758 ± 204 ng·h/mL, the Cmax is 218 ± 26 ng/mL and the Tmax amounted to 2.17 ± 1.31 h.
